Activity calls are given as the source filed them.
How the values were obtained:
[1] = target: T1, CAAX prenyl protease 2 (Homo sapiens, UniProt Q9Y256); assay: inhibition of Ras-converting CAAX protease Rce1 – biochemical, yeast membranes, quenched-peptide fluorescence, cherry-pick, dose response (AID 588849)
T1 sequence (Q9Y256 whole entry): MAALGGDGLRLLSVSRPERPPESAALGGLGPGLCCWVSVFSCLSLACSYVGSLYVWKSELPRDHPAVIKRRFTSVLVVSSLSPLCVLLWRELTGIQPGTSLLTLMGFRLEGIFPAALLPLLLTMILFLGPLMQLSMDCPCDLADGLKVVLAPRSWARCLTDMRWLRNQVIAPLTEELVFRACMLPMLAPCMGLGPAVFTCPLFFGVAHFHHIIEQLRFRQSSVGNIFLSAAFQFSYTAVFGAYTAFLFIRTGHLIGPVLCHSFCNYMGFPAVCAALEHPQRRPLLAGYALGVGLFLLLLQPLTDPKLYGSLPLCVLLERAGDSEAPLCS

[2] = target: T2, CAAX prenyl protease 2 (Saccharomyces cerevisiae S288c, UniProt Q03530); type: biochemical
T2 sequence (Q03530 whole entry): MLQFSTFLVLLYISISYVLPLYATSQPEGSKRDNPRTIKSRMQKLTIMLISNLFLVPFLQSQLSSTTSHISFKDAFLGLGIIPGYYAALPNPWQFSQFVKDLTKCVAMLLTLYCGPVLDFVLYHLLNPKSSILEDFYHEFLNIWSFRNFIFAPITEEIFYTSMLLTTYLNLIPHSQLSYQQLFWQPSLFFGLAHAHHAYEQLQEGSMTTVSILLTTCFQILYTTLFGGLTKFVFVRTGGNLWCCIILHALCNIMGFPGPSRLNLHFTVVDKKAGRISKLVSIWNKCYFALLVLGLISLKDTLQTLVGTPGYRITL

[3] = target: T3, Short transient receptor potential channel 4 (Mus musculus, UniProt Q9QUQ5); assay: calcium entry via TRPC4 opening agents – cell-based, HEK293 TRPC4/mu-opioid, Fluo-4 calcium, dose response (AID 434937); type: functional
T3 sequence (Q9QUQ5 whole entry): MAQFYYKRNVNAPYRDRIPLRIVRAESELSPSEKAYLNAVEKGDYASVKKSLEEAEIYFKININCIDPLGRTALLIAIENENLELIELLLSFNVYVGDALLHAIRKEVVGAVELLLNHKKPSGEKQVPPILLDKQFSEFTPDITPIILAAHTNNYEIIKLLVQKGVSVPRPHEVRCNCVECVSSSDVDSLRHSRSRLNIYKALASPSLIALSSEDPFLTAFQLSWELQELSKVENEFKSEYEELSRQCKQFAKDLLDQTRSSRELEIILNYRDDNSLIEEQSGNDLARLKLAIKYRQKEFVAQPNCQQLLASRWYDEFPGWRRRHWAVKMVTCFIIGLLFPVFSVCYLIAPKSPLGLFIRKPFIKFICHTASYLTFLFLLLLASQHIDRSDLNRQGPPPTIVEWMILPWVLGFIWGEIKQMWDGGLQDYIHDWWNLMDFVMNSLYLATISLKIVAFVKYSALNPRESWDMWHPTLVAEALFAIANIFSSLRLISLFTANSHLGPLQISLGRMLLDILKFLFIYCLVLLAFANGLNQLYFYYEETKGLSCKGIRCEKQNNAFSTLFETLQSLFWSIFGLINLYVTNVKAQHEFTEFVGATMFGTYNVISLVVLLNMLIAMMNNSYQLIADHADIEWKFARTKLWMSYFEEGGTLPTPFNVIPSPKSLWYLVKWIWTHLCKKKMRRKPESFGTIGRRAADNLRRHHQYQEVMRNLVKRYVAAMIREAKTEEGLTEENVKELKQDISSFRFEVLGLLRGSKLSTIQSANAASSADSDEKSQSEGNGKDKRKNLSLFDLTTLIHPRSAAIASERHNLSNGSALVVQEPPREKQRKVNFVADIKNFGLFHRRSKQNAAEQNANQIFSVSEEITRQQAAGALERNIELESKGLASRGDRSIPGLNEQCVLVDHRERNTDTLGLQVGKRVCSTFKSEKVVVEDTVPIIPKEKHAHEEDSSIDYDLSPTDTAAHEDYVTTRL

[4] = test system: HeLa; assay: ATP-based viability loss in HeLa cells – cell-based, CellTiter-Glo luminescence, cherry-pick samples, cytotoxicity control for MITF activator project, dose response (AID 540259); type: functional; conditions: Homo sapiens
[5] = target: Glucose-6-phosphate 1-dehydrogenase (Homo sapiens, UniProt P11413); assay: inhibition of Homo sapiens G6PD, dose series – biochemical, fluorescence, selectivity assay for P. falciparum G6PD inhibitor project, dose response (AID 504792); type: functional
Sequence of Glucose-6-phosphate 1-dehydrogenase (P11413 whole entry): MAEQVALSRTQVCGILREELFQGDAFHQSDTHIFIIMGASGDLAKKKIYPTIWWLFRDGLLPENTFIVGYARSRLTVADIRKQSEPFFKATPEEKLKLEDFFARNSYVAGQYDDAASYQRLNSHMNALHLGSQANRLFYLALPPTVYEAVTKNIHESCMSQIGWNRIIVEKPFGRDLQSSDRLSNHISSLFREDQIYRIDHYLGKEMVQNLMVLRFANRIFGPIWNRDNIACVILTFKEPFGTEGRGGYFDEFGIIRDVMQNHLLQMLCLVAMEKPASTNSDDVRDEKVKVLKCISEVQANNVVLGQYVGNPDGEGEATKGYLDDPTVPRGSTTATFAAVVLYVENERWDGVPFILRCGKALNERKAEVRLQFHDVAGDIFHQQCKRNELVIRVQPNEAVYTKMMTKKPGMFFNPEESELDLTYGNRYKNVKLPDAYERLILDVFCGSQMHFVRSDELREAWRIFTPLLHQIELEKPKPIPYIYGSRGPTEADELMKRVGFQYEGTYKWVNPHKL

[6] = target: 72 kDa type IV collagenase (Homo sapiens, UniProt P08253); assay: Dose Response validation of uHTS RPN11 inhibitor hits using a MMP-2 Fluorescence assay.; type: functional
Sequence of 72 kDa type IV collagenase (P08253 whole entry): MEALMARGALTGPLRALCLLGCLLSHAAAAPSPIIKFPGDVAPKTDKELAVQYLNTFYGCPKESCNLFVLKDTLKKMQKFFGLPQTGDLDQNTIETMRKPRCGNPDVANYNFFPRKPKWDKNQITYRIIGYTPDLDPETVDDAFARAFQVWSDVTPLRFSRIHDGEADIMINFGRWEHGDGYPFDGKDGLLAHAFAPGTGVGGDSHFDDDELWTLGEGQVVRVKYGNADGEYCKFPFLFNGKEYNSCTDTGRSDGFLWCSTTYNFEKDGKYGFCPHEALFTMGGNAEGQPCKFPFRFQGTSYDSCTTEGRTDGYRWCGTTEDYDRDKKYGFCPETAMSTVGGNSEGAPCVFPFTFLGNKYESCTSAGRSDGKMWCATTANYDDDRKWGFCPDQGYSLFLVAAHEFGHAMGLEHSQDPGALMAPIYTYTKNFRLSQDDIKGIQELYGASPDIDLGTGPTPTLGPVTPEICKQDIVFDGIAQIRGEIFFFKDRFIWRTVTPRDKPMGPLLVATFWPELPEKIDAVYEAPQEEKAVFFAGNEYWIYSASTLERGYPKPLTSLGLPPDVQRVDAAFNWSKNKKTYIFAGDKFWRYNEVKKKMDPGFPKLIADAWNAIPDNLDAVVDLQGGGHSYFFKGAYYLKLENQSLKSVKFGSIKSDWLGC

[7] = target: Prothrombin (Bos taurus, UniProt P00735); assay: thrombin protease inhibitors – biochemical, fluorescence polarization, uHTS hits, dose response (AID 602369); type: functional
[8] = target: 26S proteasome non-ATPase regulatory subunit 14 (Homo sapiens, UniProt O00487); assay: inhibition of proteasome subunit RPN11 – biochemical, fluorescence polarization, uHTS hits, confirmation (AID 602368); type: functional
Sequence of 26S proteasome non-ATPase regulatory subunit 14 (O00487 whole entry): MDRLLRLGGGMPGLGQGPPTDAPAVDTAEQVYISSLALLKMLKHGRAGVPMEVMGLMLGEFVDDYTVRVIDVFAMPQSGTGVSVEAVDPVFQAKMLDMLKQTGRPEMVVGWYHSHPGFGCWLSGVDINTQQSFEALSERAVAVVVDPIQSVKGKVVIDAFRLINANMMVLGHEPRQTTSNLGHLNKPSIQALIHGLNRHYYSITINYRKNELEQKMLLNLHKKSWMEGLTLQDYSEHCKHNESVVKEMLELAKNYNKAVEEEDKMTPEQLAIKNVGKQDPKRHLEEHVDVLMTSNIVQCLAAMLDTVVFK

[9] = target: Trypsin (Sus scrofa, UniProt P00761); assay: trypsin protease activity blockade – biochemical, quenched peptide fluorescence, cherry-pick, selectivity assay for Rce1 protease inhibitor project, dose response (AID 488789)
Sequence of Trypsin (P00761 whole entry): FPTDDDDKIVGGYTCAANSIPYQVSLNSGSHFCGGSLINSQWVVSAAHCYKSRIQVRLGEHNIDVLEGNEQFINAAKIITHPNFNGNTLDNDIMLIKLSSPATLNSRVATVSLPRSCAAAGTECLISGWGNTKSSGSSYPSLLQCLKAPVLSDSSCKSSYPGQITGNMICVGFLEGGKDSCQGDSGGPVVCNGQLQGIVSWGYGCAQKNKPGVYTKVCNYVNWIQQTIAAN

[10] = target: T4, Caspase-3 (Homo sapiens, UniProt P42574); assay: SAR Analysis of small molecule inhibitors of Sentrin-specific proteases (SENPs) using a Caspase-3 Selectivity assay. [Related pubchem assays (depositor defined):AID2540, AID2599, AID434973, AID489001]; type: functional
T4 sequence (P42574 whole entry): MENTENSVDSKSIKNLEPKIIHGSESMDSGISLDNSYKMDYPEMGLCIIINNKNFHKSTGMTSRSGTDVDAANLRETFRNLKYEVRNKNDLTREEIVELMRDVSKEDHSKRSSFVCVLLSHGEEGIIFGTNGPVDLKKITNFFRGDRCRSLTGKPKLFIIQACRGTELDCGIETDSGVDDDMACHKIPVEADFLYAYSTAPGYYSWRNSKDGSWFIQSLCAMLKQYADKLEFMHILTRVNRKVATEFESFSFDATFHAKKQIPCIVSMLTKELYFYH

[11] = target: T5, Sentrin-specific protease 8 (Homo sapiens, UniProt Q96LD8); assay: inhibition of human SENP8 cleavage activity – biochemical, luminescence, SAR follow-up (AID 504501); type: functional
T5 sequence (Q96LD8 whole entry): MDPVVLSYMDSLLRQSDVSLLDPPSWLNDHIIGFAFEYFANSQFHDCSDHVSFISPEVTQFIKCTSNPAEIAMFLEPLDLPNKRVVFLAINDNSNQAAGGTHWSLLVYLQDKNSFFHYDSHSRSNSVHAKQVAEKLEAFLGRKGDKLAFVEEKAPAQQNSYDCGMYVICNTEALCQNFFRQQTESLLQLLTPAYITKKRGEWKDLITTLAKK

[12] = target: T6, Sentrin-specific protease 6 (Homo sapiens, UniProt Q9GZR1); assay: SAR Analysis of small molecule inhibitors of Sentrin-specific protease 6 (SENP6) using a Luminescent assay. [Related pubchem assays (depositor defined):AID2582, AID2599]; type: functional
T6 sequence (Q9GZR1 whole entry): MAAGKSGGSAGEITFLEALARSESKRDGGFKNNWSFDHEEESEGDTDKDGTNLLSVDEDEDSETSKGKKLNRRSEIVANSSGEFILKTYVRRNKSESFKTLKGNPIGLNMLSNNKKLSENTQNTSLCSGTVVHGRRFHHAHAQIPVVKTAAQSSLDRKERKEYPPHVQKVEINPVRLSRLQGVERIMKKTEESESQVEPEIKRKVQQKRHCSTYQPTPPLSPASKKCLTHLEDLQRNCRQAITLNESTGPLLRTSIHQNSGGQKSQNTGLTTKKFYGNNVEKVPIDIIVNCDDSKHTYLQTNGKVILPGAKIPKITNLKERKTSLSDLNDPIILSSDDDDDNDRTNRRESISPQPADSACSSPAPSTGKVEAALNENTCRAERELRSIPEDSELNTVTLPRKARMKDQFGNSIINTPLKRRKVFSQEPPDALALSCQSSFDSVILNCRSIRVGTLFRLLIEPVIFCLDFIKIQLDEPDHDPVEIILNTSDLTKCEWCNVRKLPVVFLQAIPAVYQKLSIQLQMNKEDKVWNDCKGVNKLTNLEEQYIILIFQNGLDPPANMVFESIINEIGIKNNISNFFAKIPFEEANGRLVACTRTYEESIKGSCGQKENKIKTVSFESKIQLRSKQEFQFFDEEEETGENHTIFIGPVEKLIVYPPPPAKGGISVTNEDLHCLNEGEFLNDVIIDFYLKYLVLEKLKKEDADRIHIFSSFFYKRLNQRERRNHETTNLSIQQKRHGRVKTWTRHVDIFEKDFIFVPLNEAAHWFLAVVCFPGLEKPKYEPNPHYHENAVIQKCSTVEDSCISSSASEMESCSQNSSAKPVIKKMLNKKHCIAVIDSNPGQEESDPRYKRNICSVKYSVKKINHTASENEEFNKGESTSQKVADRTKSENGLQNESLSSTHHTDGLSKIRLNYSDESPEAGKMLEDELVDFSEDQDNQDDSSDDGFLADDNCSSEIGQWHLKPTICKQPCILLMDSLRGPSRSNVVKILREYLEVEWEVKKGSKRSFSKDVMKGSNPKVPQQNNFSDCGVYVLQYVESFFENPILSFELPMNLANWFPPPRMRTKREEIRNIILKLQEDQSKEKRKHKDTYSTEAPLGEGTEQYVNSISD

[13] = target: T7, Sentrin-specific protease 7 (Homo sapiens, UniProt Q9BQF6); assay: inhibition of human SENP7 cleavage activity – biochemical, luminescence, SAR follow-up (AID 504497); type: functional
T7 sequence (Q9BQF6 whole entry): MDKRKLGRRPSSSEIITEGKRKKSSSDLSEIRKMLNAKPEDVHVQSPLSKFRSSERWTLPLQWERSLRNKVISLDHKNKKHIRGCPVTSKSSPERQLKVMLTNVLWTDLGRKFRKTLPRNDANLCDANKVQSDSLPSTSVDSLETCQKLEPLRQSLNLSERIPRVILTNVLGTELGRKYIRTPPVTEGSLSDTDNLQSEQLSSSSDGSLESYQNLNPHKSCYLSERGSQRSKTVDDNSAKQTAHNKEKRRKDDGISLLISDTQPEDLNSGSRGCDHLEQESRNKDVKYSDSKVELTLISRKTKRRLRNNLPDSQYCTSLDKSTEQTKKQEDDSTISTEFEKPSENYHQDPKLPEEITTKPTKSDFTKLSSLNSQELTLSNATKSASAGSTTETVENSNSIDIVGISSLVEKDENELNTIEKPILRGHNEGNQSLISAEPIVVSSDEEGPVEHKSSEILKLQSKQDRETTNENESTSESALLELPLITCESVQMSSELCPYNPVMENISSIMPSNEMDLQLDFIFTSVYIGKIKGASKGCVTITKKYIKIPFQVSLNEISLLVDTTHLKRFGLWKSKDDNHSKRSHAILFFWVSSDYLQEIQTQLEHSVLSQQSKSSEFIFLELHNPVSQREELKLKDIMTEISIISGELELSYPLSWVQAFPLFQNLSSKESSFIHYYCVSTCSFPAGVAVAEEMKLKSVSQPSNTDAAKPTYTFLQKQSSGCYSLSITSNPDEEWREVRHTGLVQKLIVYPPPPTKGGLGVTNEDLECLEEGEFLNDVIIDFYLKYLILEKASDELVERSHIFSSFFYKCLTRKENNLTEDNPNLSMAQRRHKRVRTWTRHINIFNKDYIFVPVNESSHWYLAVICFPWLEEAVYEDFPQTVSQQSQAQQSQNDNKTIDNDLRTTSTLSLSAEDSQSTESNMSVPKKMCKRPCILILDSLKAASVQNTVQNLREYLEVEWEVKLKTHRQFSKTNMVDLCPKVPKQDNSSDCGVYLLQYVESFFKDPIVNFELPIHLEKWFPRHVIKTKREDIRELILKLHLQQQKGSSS

[14] = test system: H4; assay: Luminescence Cell-Based Dose Response HTS to Identify Activators of 5'UTR Stem-Loop Driven Prion Protein mRNA Translation in H4 Neuroglioblastoma Cells. [Related pubchem assays: 1829 (Project Summary), 1814 (Primary HTS)]; type: functional; conditions: Homo sapiens
[15] = Luminescence Cell-Based Dose Response HTS to Identify Activators of Luciferase Translation or Activity in H4 […] Cells. [Related pubchem assays: 1829 (Project Summary), 1814 (Primary HTS)]; type: functional

O=C(/C=C/c1cn(-c2ccccc2)nc1-c1cccs1)NCCN1CCOCC1
AC50 [1]: > 100 µM (inactive) | AC50 [2]: 10.8 µM (active)

CCn1cc(CN2CCCC(C(=O)Nc3ccc(-c4nc5ccccc5[nH]4)cc3)C2)c(C)n1 (configuration not stated)
EC50 [3]: 0.267 µM (active)

CC(=O)c1ccc(N2Cc3ccccc3/C2=N\C(=O)c2cccs2)cc1
AC50 [4]: 76.6 µM (active)

Cc1cccc(C(=O)Nc2nnc(S(=O)(=O)N3CCCCCC3)s2)c1
IC50 [5]: > 80 µM (inactive)

COc1cc(/C=C/c2nc(O)c3ccccc3n2)cc(Br)c1O
IC50 [6]: > 100 µM (inactive) | IC50 [7]: 88 µM (active) | IC50 [8]: 0.914 µM (active)

Oc1ccc(-c2nccc(-c3ccccn3)n2)cc1
AC50 [4]: 55.2 µM (active)

CC(C)OCCCNC(=O)c1c(N)n(CC2CCCO2)c2nc3ccccc3nc12 (configuration not stated)
AC50 [1]: 9.35 µM (active) | AC50 [2]: 15 µM (active) | AC50 [9]: 5.99 µM (active)

COc1cccc(-c2noc(/C=C/c3ccccc3Cl)n2)c1
IC50 [10]: 20 µM (active) | IC50 [11]: 18 µM (active) | IC50 [12]: 14 µM (active) | IC50 [13]: 5.2 µM (active)

CCn1c(CN2CCN(Cc3ccc(C)cc3)C(CCO)C2)nc2ccccc21 (configuration not stated)
EC50 [3]: 0.668 µM (active)

Cc1cccn2c(CNCCc3ccccn3)c(C(=O)N3CCOCC3)nc12
EC50 [3]: 1.68 µM (active)

COc1ccc(N/N=C/c2c[nH]c3ccccc23)cc1
IC50 [10]: 19.9 µM (active) | IC50 [11]: 29.5 µM (active) | IC50 [12]: 25.8 µM (active) | IC50 [13]: 11.4 µM (active)

c1ccc(CSc2ccc(-c3ccc4c(c3)OCO4)nn2)cc1
EC50 [14]: > 120 µM (not active) | AC50 [4]: 112 µM (active) | EC50 [15]: 4.69 µM (active)

CCc1cc(OCCN(C)C)ccc1Cl
EC50 [3]: 0.267 µM (active)

C=CCOc1c(Cl)cc(CNc2ccc(N(C)C)cc2)cc1OC
IC50 [5]: > 80 µM (inactive)

— ChEMBL document CHEMBL1201862, “PubChem BioAssay data set” (2004)
